We go through 8 compounds from PubChem BioAssay (NCI).

Among the test systems are 786-0 renal; HCC-2998 colon; HCT-15 colon; HOP-92 NSCLC; MALME-3M melanoma; NCI-H522 lung; OVCAR-5 ovarian; SF-539 CNS; UO-31 renal; M14 melanoma.
What all share (assay): DTP human tumour cell line panel, 48 h

The structures appear in SMILES notation.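 Growth conditions: 96-well plates. Treatment: test compound, 48 hours, 5 concentrations. Analysis: linear interpolation between bracketing concentrations; unreached endpoints set to highest concentration. Abbreviation: GI50, concentration required for 50% inhibition of growth. TGI: concentration producing complete growth inhibition.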

For the compound `Cc1c(-c2nnc(-c3ccc(F)cc3)o2)nnn1-c1ccnc2c(C(F)(F)F)cccc12`, the GI50 (commonly the concentration that inhibits growth by half) is 40600 nM in the test on 786-0 renal; > 100 µM in the test with HCC-2998 colon; > 100000 nM in the test on HCT-15 colon; 14.7 µM with HOP-92 NSCLC; 41.7 µM in the test on MALME-3M melanoma; 84700 nM with NCI-H522 lung. The GI50 was 66.7 µM in the test with OVCAR-5 ovarian, 26500 nM with SF-539 CNS and 60300 nM with UO-31 renal. For the same compound, the concentration for total growth inhibition (TGI) (commonly the concentration at which net growth stops) in the test with 786-0 renal is > 100 µM; with HCC-2998 colon, > 100 µM; in the test on HCT-15 colon it was > 100 µM; with HOP-92 NSCLC, 76.9 µM; in the test on MALME-3M melanoma, > 100 µM; with NCI-H522 lung, > 100 µM. The TGI in the test with OVCAR-5 ovarian, with SF-539 CNS and in the test on UO-31 renal was > 100 µM throughout.
With `CC(=O)c1ccc(NC(=O)C(=O)C(C(=O)c2ccc(Cl)c(Cl)c2)C2OC(=O)c3ccccc32)cc1` (stereo unspecified), the TGI came out at 33.8 µM in the test with 786-0 renal; 26.9 µM with HCC-2998 colon; 34.7 µM in the test on HCT-15 colon; 78.4 µM in the test with HOP-92 NSCLC; 41 µM in the test on M14 melanoma; 24.9 µM in the test with MALME-3M melanoma. Further, the total growth inhibition concentration (TGI) is 22.1 µM in the test on NCI-H522 lung, 71.5 µM in the test with OVCAR-5 ovarian and > 100 µM in the test with UO-31 renal.
For the compound `COc1ccc(-c2cc(-c3cc(C)ccc3O)[nH]c(=O)n2)cc1`, the TGI is > 100 µM in the test with 786-0 renal; > 100 µM in the test with HCC-2998 colon; > 100 µM with HOP-92 NSCLC; > 100 µM in the test with M14 melanoma; > 100 µM in the test with MALME-3M melanoma; 94 µM in the test on NCI-H522 lung. The concentration for total growth inhibition (TGI) in the test with SF-539 CNS and with UO-31 renal was > 100 µM in each case.
Regarding `O=C(Cc1ccccc1)NC(c1ccc(Cl)cc1)c1c(O)ccc2ccccc12` (stereo unspecified), the GI50 in the test with 786-0 renal was 2870 nM; in the test on HCC-2998 colon it was 3.2 µM; with HCT-15 colon, 2830 nM; in the test with HOP-92 NSCLC, 2.77 µM; in the test on MALME-3M melanoma it was 2.69 µM; in the test with NCI-H522 lung, 2820 nM. Also, the results for the GI50 in the test with OVCAR-5 ovarian, with SF-539 CNS and with UO-31 renal were 3.16 µM, 2530 nM and 2410 nM, respectively. Also, the total growth inhibition concentration (TGI) worked out at 9.76 µM in the test with 786-0 renal; 12.2 µM in the test with HCC-2998 colon; 10.5 µM in the test with HCT-15 colon; 7.24 µM with HOP-92 NSCLC; 8.22 µM in the test on MALME-3M melanoma; 7.57 µM in the test on NCI-H522 lung. In addition, the values for the concentration for total growth inhibition (TGI) with OVCAR-5 ovarian, with SF-539 CNS and in the test on UO-31 renal were 10.2 µM, 7.51 µM and 8.93 µM, respectively.
For `Cc1c(C(=O)/C=C/c2c(Cl)cccc2Cl)c(=O)n(-c2ccccc2)n1C`, the concentration for total growth inhibition (TGI) in the test with 786-0 renal was 38.6 µM; in the test on HCC-2998 colon, 65.8 µM; in the test with HCT-15 colon, > 100 µM; with HOP-92 NSCLC, 74.6 µM; in the test with MALME-3M melanoma, > 100 µM; in the test on NCI-H522 lung, 48.5 µM. Moreover, the TGI in the test with OVCAR-5 ovarian and with UO-31 renal was > 100 µM throughout.
As to `CC1OC(n2c3ccccc3c3c4c(c5c6ccccc6[nH]c5c32)C(=O)N(CCN2CCOCC2)C4=O)CC(O)C1O` (stereo unspecified), the GI50 in the test with 786-0 renal is 1490 nM; with HCC-2998 colon it was 7.03 µM; in the test on HCT-15 colon, 2340 nM; in the test with HOP-92 NSCLC it was 7.77 µM; in the test on M14 melanoma, 1430 nM; with MALME-3M melanoma, 4.54 µM. Also, the GI50 with NCI-H522 lung is 1520 nM; in the test on OVCAR-5 ovarian, 5.36 µM; with UO-31 renal it was 1960 nM. Moreover, the TGI in the test with 786-0 renal was determined as 6.53 µM; in the test on HCC-2998 colon, 14 µM; in the test with HCT-15 colon, 13.5 µM; in the test with HOP-92 NSCLC, 15.8 µM; with M14 melanoma, 5.95 µM; in the test on MALME-3M melanoma, 12.8 µM. In addition, the total growth inhibition concentration (TGI) in the test with NCI-H522 lung amounted to 11.1 µM; with OVCAR-5 ovarian, 12.9 µM; in the test with UO-31 renal, 10.8 µM.
Consider `COC(=O)C1=C(c2ccc3c(c2)OCO3)OC(c2ccc3c(c2)OCO3)C1` (stereo unspecified), for which the TGI with 786-0 renal, in the test on HCC-2998 colon, with HCT-15 colon, in the test with HOP-92 NSCLC, in the test with M14 melanoma and in the test on MALME-3M melanoma was > 100 µM each time. Besides, the TGI in the test with OVCAR-5 ovarian, with SF-539 CNS and in the test on UO-31 renal was > 100 µM throughout.
In the case of `O=C1CC[C@H](c2ccc(O)c3c2C(=O)[C@@H]2O[C@@H]2C3=O)c2cccc(O)c21`, the GI50 is 1790 nM in the test on 786-0 renal; 2.12 µM in the test on HCC-2998 colon; 2.38 µM in the test with HOP-92 NSCLC; 1900 nM in the test with M14 melanoma; 2.31 µM in the test with MALME-3M melanoma; 1720 nM in the test with NCI-H522 lung. The GI50 in the test on OVCAR-5 ovarian is 4.55 µM; with SF-539 CNS, 2420 nM; with UO-31 renal, 1570 nM. Besides, the concentration for total growth inhibition (TGI) with 786-0 renal came out at 3.43 µM; with HCC-2998 colon, 4.29 µM; in the test with HOP-92 NSCLC, 5.12 µM; in the test with M14 melanoma, 4.09 µM; in the test on MALME-3M melanoma, 6.37 µM; with NCI-H522 lung it was 3.33 µM. Also, the figures for the TGI in the test with OVCAR-5 ovarian, in the test on SF-539 CNS and in the test with UO-31 renal were 20.3 µM, 5.46 µM and 3.16 µM, respectively.
